This assay concerns the target Beta-secretase (BACE) (Homo sapiens, UniProt Q9Y5Z0+P56817). Description: Inhibitory activity against aspartyl protease. In kind it is protein assay.

SMILES strings stand for the structures.

Usually IC50 stands for the concentration that gives 50% inhibition. Read a low IC50 as greater potency. In turn, `CC[C@H](C)[C@H](NC(=O)[C@H](Cc1ccccc1)NC(C)=O)C(=O)NC(CC(C)C)C(O)CC(=O)NC(CC(C)C)C(N)=O` (stereo in doubt) registered an IC50 of 1400 nM.
